Data as given in patent publication US20240081328A1, “Use of 4-Nitro-3-(Trifluoromethyl)Phenol in Killing or Controlling Pomacea Canaliculata, Method for Killing or Controlling Pomacea Canaliculata, and Molluscicide” (priority 2021, published 2024).
Read-outs that look alike come from different tables or passages of the source.

Tested on: Pomacea canaliculata
Test: Immersion test of dilutions in beakers, mortality rate of Pomacea canaliculata
Format: in vivo
Details: for mortality at 0.0039 µg/mL / mortality at 0.0078 µg/mL / mortality at 0.0156 µg/mL / mortality at 0.0312 µg/mL / mortality at 0.0625 µg/mL / mortality at 0.125 µg/mL / mortality at 0.25 µg/mL / mortality at 0.5 µg/mL: Pomacea canaliculata, read-out: Mortality rate (%) of Pomacea canaliculata at different action time (h); for mortality at 0.0039 µg/mL: 0.0039 mg/L; for mortality at 0.0078 µg/mL: 0.0078 mg/L; for mortality at 0.0156 µg/mL: 0.0156 mg/L; for mortality at 0.0312 µg/mL: 0.0312 mg/L; for mortality at 0.125 µg/mL: 0.125 mg/L; for mortality at 0.25 µg/mL: 0.25 mg/L; for mortality at 0.5 µg/mL: 0.5 mg/L
Method: 0.5 mg of 4-nitro-3-(trifluoromethyl)phenol and 0.5 mg of niclosamide were completely dissolved in 1 mL of a dimethyl sulfoxide (DMSO) solution separately, and diluted to 1,000 mL with deaminized water to obtain a 4-nitro-3-(trifluoromethyl)phenol solution with a concentration of 0.5 mg/L and a niclosamide solution with a concentration of 0.5 mg/L.
The two solutions were separately diluted into 7 concentrations of dilutions using a doubling dilution method, including 0.25 mg/L, 0.125 mg/L, 0.0625 mg/L, 0.0312 mg/L, 0.0156 mg/L, and 0.0078 mg/L, and 0.0039 mg/L.
400 mL of the dilutions with different concentrations were separately poured into a 500 mL beaker, 10 Pomacea canaliculata samples were put into the dilution of each concentration, and each bottle mouth was sealed with wire mesh to completely immerse the Pomacea canaliculata in the dilution; clear water was used as a control group.
The experimental data were used to calculate the mortality rate of each treatment according to the following formula. Each calculation result was rounded to two decimal places. A formula for calculating the mortality rate was: […]
In the formula: P represented the mortality rate, in percentage (%); Σ^Ki represented • the number of dead Pomacea canaliculata, in snails; Σ^Ni represented the total number of treated Pomacea canaliculata, in snails.

O=[N+]([O-])c1ccc(O)cc1C(F)(F)F [4-nitro-3-(trifluoromethyl)phenol]
killing of Pomacea canaliculata (in words) (0.0625 mg/L, action time of 24 h): could kill all Pomacea canaliculata | mortality at 0.0039 µg/mL (action time 0 h): 0% | mortality at 0.0039 µg/mL (action time 12 h): 0% | mortality at 0.0039 µg/mL (action time 24 h): 20% | mortality at 0.0039 µg/mL (action time 36 h): 50% | mortality at 0.0039 µg/mL (action time 48 h): 50% | mortality at 0.0039 µg/mL (action time 60 h): 50% | mortality at 0.0039 µg/mL (action time 72 h): 70% | mortality at 0.0078 µg/mL (action time 0 h): 0% | mortality at 0.0078 µg/mL (action time 12 h): 0% | mortality at 0.0078 µg/mL (action time 24 h): 40% | mortality at 0.0078 µg/mL (action time 36 h): 100% | mortality at 0.0078 µg/mL (action time 48 h): 100% | mortality at 0.0078 µg/mL (action time 60 h): 100% | mortality at 0.0078 µg/mL (action time 72 h): 100% | mortality at 0.0156 µg/mL (action time 0 h): 0% | mortality at 0.0156 µg/mL (action time 12 h): 10% | mortality at 0.0156 µg/mL (action time 24 h): 100% | mortality at 0.0156 µg/mL (action time 36 h): 100% | mortality at 0.0156 µg/mL (action time 48 h): 100% | mortality at 0.0156 µg/mL (action time 60 h): 100% | mortality at 0.0156 µg/mL (action time 72 h): 100% | mortality at 0.0312 µg/mL (action time 0 h): 0% | mortality at 0.0312 µg/mL (action time 12 h): 30% | mortality at 0.0312 µg/mL (action time 24 h): 100% | mortality at 0.0312 µg/mL (action time 36 h): 100% | mortality at 0.0312 µg/mL (action time 48 h): 100% | mortality at 0.0312 µg/mL (action time 60 h): 100% | mortality at 0.0312 µg/mL (action time 72 h): 100% | mortality at 0.0625 µg/mL (0.0625 mg/L, action time 0 h): 0% | mortality at 0.0625 µg/mL (0.0625 mg/L, action time 12 h): 70% | mortality at 0.0625 µg/mL (0.0625 mg/L, action time 24 h): 100% | mortality at 0.0625 µg/mL (0.0625 mg/L, action time 36 h): 100% | mortality at 0.0625 µg/mL (0.0625 mg/L, action time 48 h): 100% | mortality at 0.0625 µg/mL (0.0625 mg/L, action time 60 h): 100% | mortality at 0.0625 µg/mL (0.0625 mg/L, action time 72 h): 100% | mortality at 0.125 µg/mL (action time 0 h): 0% | mortality at 0.125 µg/mL (action time 12 h): 100% | mortality at 0.125 µg/mL (action time 24 h): 100% | mortality at 0.125 µg/mL (action time 36 h): 100% | mortality at 0.125 µg/mL (action time 48 h): 100% | mortality at 0.125 µg/mL (action time 60 h): 100% | mortality at 0.125 µg/mL (action time 72 h): 100% | mortality at 0.25 µg/mL (action time 0 h): 0% | mortality at 0.25 µg/mL (action time 12 h): 100% | mortality at 0.25 µg/mL (action time 24 h): 100% | mortality at 0.25 µg/mL (action time 36 h): 100% | mortality at 0.25 µg/mL (action time 48 h): 100% | mortality at 0.25 µg/mL (action time 60 h): 100% | mortality at 0.25 µg/mL (action time 72 h): 100% | mortality at 0.5 µg/mL (action time 0 h): 0% | mortality at 0.5 µg/mL (action time 12 h): 100% | mortality at 0.5 µg/mL (action time 24 h): 100% | mortality at 0.5 µg/mL (action time 36 h): 100% | mortality at 0.5 µg/mL (action time 48 h): 100% | mortality at 0.5 µg/mL (action time 60 h): 100% | mortality at 0.5 µg/mL (action time 72 h): 100% | Pomacea canaliculata killing activity / control effect compared with niclosamide (overall conclusion from Tables 2 and 3): comparable to that of the niclosamide | killing effect on the Pomacea canaliculata (in words) (overall conclusion from the examples): obvious killing effect
